Assay results published in patent US20190031613A1, “COMPOUNDS AND METHODS FOR THEIR USE IN THE TREATMENT OF MALARIA” (University of South Florida, priority 2016, published 2019).
Converted amounts (≈) assume the structure as drawn.

Columns and labels:
physchem = settings: pH 7.4, aqueous buffer
[1] = tested on: multidrug resistant malarial strain W2 (pyrimethamine and chloroquine resistant); assay: in vitro antimalarial activity against strain W2; format: cell-based; settings: strains W2 and TM90-C2B, strain not specified
Description: (§1) FIG. 2a depicts the synthesis of 4(1H)-quinolones 1 via Conrad-Limpach reaction^24 and conversion to first set of prodrugs (2, 3 and 4) via O-acylation.
(§2) FIG. 4a depicts the synthesis of 4(1H)-quinolones 1 into amino AOCOM ether prodrugs 6 via O-alkylation and subsequent deprotection.

[2] = tested on: multidrug resistant malarial strain TM90-C2B (mefloquine, chloroquine, atovaquone, pyrimethamine resistant); assay: in vitro antimalarial activity against strain TM90-C2B; format: cell-based; settings: internal controls of the in vitro assay
Description: as §1, §2

[3] = aqueous solubility at pH 2.5, UV-based assay; format: physicochemical; settings: aqueous solution at pH 2.5, pH 2.5, aqueous buffer; read-out: aqueous solubility at acidic pH
Description: Analogous to known AOCOM ether prodrugs, AOCOM iodides were used to prepare the desired prodrugs.^39 Thus, the synthesis route to the prodrugs commences with conversion of Boc-protected amino alcohols into corresponding Boc-protected aminoalkyloxycarbonyloxymethyl (amino AOCOM) iodides (FIG. 4a). Reaction of 4-quinolinols 1c′ and with the 1d′ with the Boc-protected amino AOCOM iodides, in presence of caesium carbonate, and subsequent deprotection leads to water-soluble HCl salts 6a-d (FIG. 4b). […] The assessment of the aqueous solubility at pH 7.4 was challenging due to the limited stability of the prodrug moiety at neutral pH and was not performed. […] In addition, solid material was rapidly dissolved in 0.5% aqueous HEC solution and visually inspected after 60 seconds for material dissolution.

P. berghei-GFP parasites = assay: in vivo efficacy, modified Thompson test; design: species or system mice; settings: three daily doses days 3-5 PI, 0.5% aqueous HEC
Protocol: Prodrug 6d was orally tested for in vivo efficacy at four doses (0.3 mg/kg, 1.0 mg/kg, 3.0 mg/kg, and 10 mg/kg) in 0.5% aqueous HEC solution.

CCOC(=O)Oc1c(-c2ccccc2C)c(C)nc2cc(OC)c(Cl)cc12 [compound 4, 6-Chloro-7-methoxy-2-methyl-3-(o-tolyl)-4-((ethoxycarbonyl)oxy)quinoline]
solubility (physchem): 1.2 µM (≈ 0.463 µg/mL) | in vitro antimalarial activity / EC50 values relative to 1c [1]: comparable to the EC50 values of 1c

C[C@H]1[C@@H](O)O[C@@H]2O[C@@]3(C)CC[C@H]4[C@H](C)CC[C@@H]1[C@@]24OO3 [DHA, dihydroartemisinin, reference compound]
EC50 [2]: 0.005 µM

O=C1C(O)=C([C@H]2CC[C@H](c3ccc(Cl)cc3)CC2)C(=O)c2ccccc21 [ATO, atovaquone, reference compound]
EC50 [2]: 18.4 µM

CNCCCOC(=O)OCOc1c(-c2ccccc2C)c(C)nc2cc(OC)c(Cl)cc12.Cl [6b, 6-Chloro-7-methoxy-2-methyl-3-(o-tolyl)-4-(((3-(methylammonio)propyloxycarbonyl)oxy)methoxy)quinoline, chloride salt]
solubility [3]: > 100 µM | Suppression [%] day 6 PI (P. berghei-GFP parasites; 10 mg/kg PO): 52% | Day of death (avg) (P. berghei-GFP parasites; 10 mg/kg PO, untreated 13): 13 | Day of death (avg) (P. berghei-GFP parasites; 50 mg/kg PO): 13 | Suppression [%] day 6 PI (P. berghei-GFP parasites; 50 mg/kg PO): 72%
